The nature of test [1]: Activation of autophagy in human SH-SY5Y cells expressing GFP-LC3-RFP assessed as green-to-red signal ratio at 250 mkM relative to control. The class given is functional. Conditions: at 250 µM.
Test [2] is described as follows: Activation of autophagy in human SH-SY5Y cells expressing GFP-LC3-RFP assessed as green-to-red signal ratio at 25 mkM relative to control. Format: functional. Conditions: at 25 µM.
The nature of test [3]: Activation of autophagy in human SH-SY5Y cells expressing GFP-LC3-RFP assessed as green-to-red signal ratio at 2.5 mkM relative to control. Format: functional. Conditions: at 2.5 µM.
The subject of test [4] is SH-SY5Y. Kind of test: Activation of autophagy in human SH-SY5Y cells expressing GFP-LC3-RFP assessed as increase in LC3-II level at 250 mkM by Western blot analysis. Format: functional, cell-based. A general note: A western blot detects proteins with antibodies after separation by electrophoresis.
Test [5] concerns SH-SY5Y. The experiment in a line: Activation of autophagy in human SH-SY5Y cells expressing GFP-LC3-RFP assessed as increase in LC3-II level at 25 to 250 mkM by Western blot analysis. The class given is functional, cell-based. Conditions: dose 25-250 mkM.
For test [6], the system named is SH-SY5Y. Kind of test: Activation of mitophagy in human SH-SY5Y cells expressing GFP-LC3-RFP assessed as increase in phospho-ubiquitin level at 25 to 250 mkM by Western blot analysis. Format: functional, cell-based. Conditions: dose 25-250 mkM.
Test [7] has as its system SH-SY5Y. The experiment in a line: Effect on AKT phosphorylation at T308 in human SH-SY5Y cells expressing GFP-LC3-RFP at 25 to 250 mkM by Western blot analysis. Conditions: dose 25-250 mkM. Format: functional, cell-based.
Test [8] relates to SH-SY5Y. The experiment in a line: Effect on TSC2 phosphorylation in human SH-SY5Y cells expressing GFP-LC3-RFP at 25 to 250 mkM by Western blot analysis. Format: functional, cell-based. Conditions: dose 25-250 mkM.
Test [9] concerns SH-SY5Y. Kind of test: Activation of autophagy in human SH-SY5Y cells expressing GFP-LC3-RFP assessed as increase in AMPK phosphorylation by Western blot analysis. Format: functional, cell-based. Conditions: dose 25-250 mkM.
Test [10] concerns SH-SY5Y. Kind of test: Activation of autophagy in human SH-SY5Y cells expressing GFP-LC3-RFP assessed as increase in ULK1 phosphorylation at S555 at 25 to 250 mkM by Western blot analysis. The class given is functional, cell-based. Conditions: dose 25-250 mkM.
Test [11] has as its system SH-SY5Y. The experiment in a line: Activation of autophagy in human SH-SY5Y cells expressing GFP-LC3-RFP assessed as increase in Beclin-1 level at 25 to 250 mkM by Western blot analysis. Format: functional, cell-based. Conditions: dose 25-250 mkM.
The test system of test [12] is SH-SY5Y. The experiment in a line: Activation of autophagy in human SH-SY5Y cells expressing SIRT1-/-/GFP-LC3-RFP assessed as increase in green-to-red signal ratio at 25 to 250 mkM. The class given is functional, cell-based. Conditions: dose 25-250 mkM.
Test [13] has as its system SH-SY5Y. The experiment in a line: Activation of autophagy in human SH-SY5Y cells expressing AMPK-/-/GFP-LC3-RFP assessed as increase in green-to-red signal ratio at 25 to 250 mkM. The class given is functional, cell-based. Conditions: dose 25-250 mkM.
Test [14] deals with SH-SY5Y. Kind of test: Activation of autophagy in human SH-SY5Y cells expressing GFP-LC3-RFP assessed as increase in AMPK phosphorylation at 25 to 250 mkM by Western blot analysis. Format: functional, cell-based. Conditions: dose 25-250 mkM.
Test [15] has as its system SH-SY5Y. Kind of test: Downregulation of ULK phosphorylation at S757 in human SH-SY5Y cells expressing GFP-LC3-RFP at 25 to 250 mkM by Western blot analysis. Format: functional, cell-based. Conditions: dose 25-250 mkM.
Test [16] deals with SH-SY5Y. Kind of test: Downregulation of 4E-BP1 phosphorylation in human SH-SY5Y cells expressing GFP-LC3-RFP at 25 to 250 mkM by Western blot analysis. Conditions: dose 25-250 mkM. The class given is functional, cell-based.

Each structure is given as a SMILES string. Activity calls are given as the source filed them. No cut-off for these calls is given here.

Turning to `Nc1ncnc2c1nc(Br)n2[C@H]1C[C@H](O)[C@@H](CO)O1`, the Ratio in test [1] is on record as 0.2%; in test [2] it was 3.16%; in [3], 1.78%.

As to `Nc1ncnc2c1[nH]c(=O)n2COCCO`, the Ratio in [1] was 2.59%; in test [2], -2.79%; in test [3], -0.47%. Moreover, the result in the test with SH-SY5Y [4] was Active. Further, the Activity entry with SH-SY5Y [5] is “Not active; Exhibited Weakest Activity Among Tested Compounds”.

As for `O=c1[nH]c2c(ncn3ccnc23)n1[C@@H]1O[C@H](CO)[C@@H](O)[C@H]1O`, the Ratio in test [1] is -0.79%; in test [2], -1.76%; in test [3], -1.32%.

For the compound `Nc1nc2c([nH]c(=O)n2[C@H]2C[C@H](O)[C@@H](CO)O2)c(=O)[nH]1`, the values for the Ratio in test [1], in [2] and in [3] were 1.94%, 1.51% and -0.68%, respectively.

Take `Nc1ncnc2c1[nH]c(=O)n2[C@H]1C[C@H](O)[C@@H](CO)O1`: the Ratio in [1] turned out to be 5.41%; in test [2] it was 1.85%; in test [3] it was 1.85%. Moreover, the Activity result with SH-SY5Y [5] was “Active; Exhibited Moderate Activity”; in the test on SH-SY5Y [9], “Dose-dependent-effect”. Besides, the outcome in the test with SH-SY5Y [6] and in the test with SH-SY5Y [8] was inactive. The result in the test with SH-SY5Y [7], in the test with SH-SY5Y [10], in the test with SH-SY5Y [11], in the test with SH-SY5Y [12] and in the test with SH-SY5Y [13] was Active.

With `Nc1ncnc2c1nc(Br)n2COCCO`, the Ratio in test [1] is on record as -0.4%; in test [2] it was 1.28%; in test [3], 1.31%.

For `Nc1ncnc2c1[nH]c(=O)n2[C@@H]1O[C@H](CO)[C@@H](O)[C@H]1O`, the Ratio in test [1] is 5.71%; in test [2], 3.62%; in test [3], 1.31%. For the same compound, the values for the Activity result in the test on SH-SY5Y [5] and in the test on SH-SY5Y [9] were “Active; Exhibited Moderate Activity” and “Dose-dependent-effect”, respectively. Further, the outcome in the test on SH-SY5Y [6] and in the test with SH-SY5Y [8] was inactive. In addition, the outcome with SH-SY5Y [7], with SH-SY5Y [10], with SH-SY5Y [11], in the test with SH-SY5Y [12] and in the test on SH-SY5Y [13] was Active.

With `CCC(CC)COC(=O)[C@@H](C)N[P@](=O)(OC[C@H]1O[C@@H](n2cnc3c(NC)ncnc32)[C@H](O)[C@@H]1O)Oc1ccccc1`, the Ratio is 7.26% in [1], 0.44% in test [2] and -3.79% in test [3]. Moreover, the Activity entry with SH-SY5Y [5] was “Active; Exhibited Higher Activity Compared To Parent Compound”; with SH-SY5Y [15] it was “Active; Result Provides Indirect Evidence Of Mtor Inhibition”; in the test with SH-SY5Y [16] it was “Active; Result Provides Indirect Evidence Of Mtor Inhibition”. Moreover, the outcome in the test with SH-SY5Y [6] and with SH-SY5Y [7] was inactive. The outcome in the test with SH-SY5Y [14], with SH-SY5Y [10], in the test with SH-SY5Y [12] and in the test on SH-SY5Y [13] was Active.

Take `CNc1ncnc2c1ncn2[C@@H]1O[C@H](CO)[C@@H](O)[C@H]1O`: the Ratio is reported as 3.36% in [1], -1.43% in test [2] and -1.2% in test [3]. Besides, in the test on SH-SY5Y [4], the result was Active. Further, the Activity result with SH-SY5Y [5] was “Not active; Exhibited Weakest Activity Among Tested Compounds”.

For the origin of these results see ChEMBL document CHEMBL6083233, “Modified (2'-deoxy)adenosines activate autophagy primarily through AMPK/ULK1-dependent pathway” (2024).
